Key:
Type in all cases: cell-based
[1] = target: T1, NaV1.7 (Homo sapiens (Human), UniProt Q15858); experiment: NaV flux assay, inhibition of NaV1.7; settings: NaV flux data, included when EP data is not available
[2] = target: NaV1.5 (Homo sapiens (Human), UniProt Q14524); experiment: NaV flux assay, inhibition of NaV1.5; settings: NaV flux data, included when EP data is not available
[3] = target: T1, NaV1.7; experiment: Patch voltage clamp electrophysiology (EP), affinity for the inactivated state of Nav1.7; settings: HEK-293 cells expressing human Nav1.7 with β1 subunit

NaV1.5, sequence (Q14524 whole entry): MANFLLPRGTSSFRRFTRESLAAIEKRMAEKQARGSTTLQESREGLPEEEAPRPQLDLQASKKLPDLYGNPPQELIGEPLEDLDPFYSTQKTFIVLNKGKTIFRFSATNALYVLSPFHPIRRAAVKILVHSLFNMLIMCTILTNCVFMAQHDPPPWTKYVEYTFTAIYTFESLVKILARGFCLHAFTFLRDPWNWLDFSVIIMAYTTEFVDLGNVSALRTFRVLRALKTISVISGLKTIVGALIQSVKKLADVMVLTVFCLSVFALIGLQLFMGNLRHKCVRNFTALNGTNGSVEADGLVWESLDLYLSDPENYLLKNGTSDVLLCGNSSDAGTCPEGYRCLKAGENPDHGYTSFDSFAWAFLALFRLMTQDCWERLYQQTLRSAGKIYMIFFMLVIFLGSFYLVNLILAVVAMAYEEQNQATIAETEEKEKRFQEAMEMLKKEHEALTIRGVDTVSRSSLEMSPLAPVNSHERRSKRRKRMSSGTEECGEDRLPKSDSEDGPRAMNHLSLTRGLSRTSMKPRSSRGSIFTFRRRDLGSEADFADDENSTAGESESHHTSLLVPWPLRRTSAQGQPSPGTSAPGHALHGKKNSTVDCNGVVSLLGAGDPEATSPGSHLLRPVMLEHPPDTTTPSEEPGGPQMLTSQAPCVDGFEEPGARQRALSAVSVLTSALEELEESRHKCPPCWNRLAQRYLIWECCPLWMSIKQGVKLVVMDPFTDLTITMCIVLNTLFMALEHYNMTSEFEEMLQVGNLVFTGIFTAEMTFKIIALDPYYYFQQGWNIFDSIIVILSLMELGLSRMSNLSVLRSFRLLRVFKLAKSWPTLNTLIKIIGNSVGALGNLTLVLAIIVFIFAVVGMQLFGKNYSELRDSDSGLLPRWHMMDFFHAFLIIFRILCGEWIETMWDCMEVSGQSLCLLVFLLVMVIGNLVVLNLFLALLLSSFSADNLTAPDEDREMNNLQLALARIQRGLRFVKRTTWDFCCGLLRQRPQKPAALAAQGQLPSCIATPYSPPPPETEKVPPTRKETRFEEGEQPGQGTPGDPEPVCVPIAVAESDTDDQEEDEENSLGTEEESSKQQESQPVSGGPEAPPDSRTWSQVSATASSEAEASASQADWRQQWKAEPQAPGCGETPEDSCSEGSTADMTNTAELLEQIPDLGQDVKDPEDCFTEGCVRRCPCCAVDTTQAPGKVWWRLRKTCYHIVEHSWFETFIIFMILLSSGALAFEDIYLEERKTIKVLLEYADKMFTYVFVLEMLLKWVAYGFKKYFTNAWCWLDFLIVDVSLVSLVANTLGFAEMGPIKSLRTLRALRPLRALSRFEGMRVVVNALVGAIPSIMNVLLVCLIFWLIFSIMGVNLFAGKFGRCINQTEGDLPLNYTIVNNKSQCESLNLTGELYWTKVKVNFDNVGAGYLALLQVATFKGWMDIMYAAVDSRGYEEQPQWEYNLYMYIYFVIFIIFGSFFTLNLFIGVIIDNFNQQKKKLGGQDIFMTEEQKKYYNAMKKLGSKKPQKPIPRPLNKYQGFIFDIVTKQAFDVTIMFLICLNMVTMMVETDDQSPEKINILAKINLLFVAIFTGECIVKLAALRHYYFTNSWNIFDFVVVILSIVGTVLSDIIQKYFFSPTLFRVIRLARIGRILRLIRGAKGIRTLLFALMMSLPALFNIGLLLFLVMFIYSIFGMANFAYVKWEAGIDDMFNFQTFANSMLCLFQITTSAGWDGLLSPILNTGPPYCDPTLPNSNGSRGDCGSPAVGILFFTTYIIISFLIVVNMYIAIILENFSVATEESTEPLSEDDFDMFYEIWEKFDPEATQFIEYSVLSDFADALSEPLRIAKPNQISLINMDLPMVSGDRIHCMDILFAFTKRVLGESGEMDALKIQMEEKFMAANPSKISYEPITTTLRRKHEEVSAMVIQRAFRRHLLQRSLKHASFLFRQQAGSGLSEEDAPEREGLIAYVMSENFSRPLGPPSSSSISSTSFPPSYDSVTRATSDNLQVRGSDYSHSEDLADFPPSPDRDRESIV
T1 sequence (Q15858 other isoform, or with tags, fused parts or gaps): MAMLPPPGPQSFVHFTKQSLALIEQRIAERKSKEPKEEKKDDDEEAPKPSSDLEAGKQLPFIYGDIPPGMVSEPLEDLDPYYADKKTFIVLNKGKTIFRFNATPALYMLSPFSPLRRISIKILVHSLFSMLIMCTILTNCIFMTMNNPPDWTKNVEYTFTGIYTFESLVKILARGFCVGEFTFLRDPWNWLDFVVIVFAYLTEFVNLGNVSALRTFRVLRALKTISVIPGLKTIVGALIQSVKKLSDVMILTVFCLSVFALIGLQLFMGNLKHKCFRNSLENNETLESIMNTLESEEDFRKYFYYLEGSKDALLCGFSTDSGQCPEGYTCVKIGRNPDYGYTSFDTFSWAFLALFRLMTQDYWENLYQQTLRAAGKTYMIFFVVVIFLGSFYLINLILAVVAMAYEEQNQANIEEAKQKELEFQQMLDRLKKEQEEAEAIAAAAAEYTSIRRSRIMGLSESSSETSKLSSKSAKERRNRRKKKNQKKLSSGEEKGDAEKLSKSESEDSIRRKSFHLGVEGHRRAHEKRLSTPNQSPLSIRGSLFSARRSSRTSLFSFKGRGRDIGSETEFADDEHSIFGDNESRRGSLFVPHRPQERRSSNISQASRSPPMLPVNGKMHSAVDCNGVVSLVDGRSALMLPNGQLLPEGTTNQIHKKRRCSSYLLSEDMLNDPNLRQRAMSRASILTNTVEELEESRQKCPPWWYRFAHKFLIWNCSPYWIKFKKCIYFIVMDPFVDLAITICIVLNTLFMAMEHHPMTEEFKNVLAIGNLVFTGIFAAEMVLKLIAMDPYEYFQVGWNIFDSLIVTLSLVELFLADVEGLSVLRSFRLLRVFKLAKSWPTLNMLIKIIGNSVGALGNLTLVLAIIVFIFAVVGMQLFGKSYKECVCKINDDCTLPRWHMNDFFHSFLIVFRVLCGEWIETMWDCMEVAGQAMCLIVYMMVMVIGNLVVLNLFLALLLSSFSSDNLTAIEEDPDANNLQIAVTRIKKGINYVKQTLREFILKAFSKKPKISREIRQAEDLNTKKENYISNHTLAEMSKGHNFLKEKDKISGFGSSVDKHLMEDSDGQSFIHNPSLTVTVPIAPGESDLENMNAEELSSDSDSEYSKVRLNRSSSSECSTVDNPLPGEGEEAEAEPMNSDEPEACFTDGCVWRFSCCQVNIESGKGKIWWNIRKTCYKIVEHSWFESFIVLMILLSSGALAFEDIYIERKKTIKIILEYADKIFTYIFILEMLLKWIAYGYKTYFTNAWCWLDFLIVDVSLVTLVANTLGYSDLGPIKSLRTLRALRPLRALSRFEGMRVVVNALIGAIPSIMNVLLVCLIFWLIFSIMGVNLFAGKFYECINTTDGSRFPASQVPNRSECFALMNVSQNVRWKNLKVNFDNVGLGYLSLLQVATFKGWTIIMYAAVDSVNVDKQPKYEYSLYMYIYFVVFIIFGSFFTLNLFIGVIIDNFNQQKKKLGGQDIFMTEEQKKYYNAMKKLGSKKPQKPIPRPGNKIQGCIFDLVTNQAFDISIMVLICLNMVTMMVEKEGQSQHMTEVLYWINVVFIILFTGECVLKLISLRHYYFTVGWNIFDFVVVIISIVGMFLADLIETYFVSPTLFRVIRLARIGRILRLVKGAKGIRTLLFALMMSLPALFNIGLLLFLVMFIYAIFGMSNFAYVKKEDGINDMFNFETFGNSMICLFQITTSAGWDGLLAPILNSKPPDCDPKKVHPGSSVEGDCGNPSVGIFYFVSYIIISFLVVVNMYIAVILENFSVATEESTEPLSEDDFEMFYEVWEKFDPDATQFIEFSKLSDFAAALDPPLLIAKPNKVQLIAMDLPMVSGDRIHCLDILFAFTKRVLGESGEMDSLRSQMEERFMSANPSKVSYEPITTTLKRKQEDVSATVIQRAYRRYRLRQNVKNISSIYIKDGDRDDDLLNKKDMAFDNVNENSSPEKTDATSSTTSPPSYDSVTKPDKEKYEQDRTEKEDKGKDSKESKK
T1 sequence (Q07699 19-218 partner): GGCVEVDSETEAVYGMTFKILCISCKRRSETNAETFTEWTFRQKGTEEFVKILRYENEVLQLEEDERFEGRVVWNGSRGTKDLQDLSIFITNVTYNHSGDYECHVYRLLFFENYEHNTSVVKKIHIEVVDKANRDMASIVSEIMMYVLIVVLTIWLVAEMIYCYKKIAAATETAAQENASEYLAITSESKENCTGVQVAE

IC50 [1] [µM]	IC50 ([3]; read-out: NaV1.7 (IC50 class)) [µM]	IC50 ([3]; read-out: NaV1.7 IC50) [µM]	Structure (SMILES)	IC50 [2] [µM]
7.88			CN(c1ncns1)S(=O)(=O)c1cc(F)c(OC[C@@H]2CNCC[C@H]2c2ccc(Cl)cc2)cc1F (relative stereo) [Example 79, 4-((trans-4-(4-chlorophenyl)piperidin-3-yl)methoxy)-2,5-difluoro-N-methyl-N-(1,2,4-thiadiazol-5-yl)benzenesulfonamide]	> 10
0.244			O=C1CC[C@@H](c2ccc(Cl)cc2)[C@H](COc2cc(F)c(S(=O)(=O)Nc3ncns3)cc2F)C1 (relative stereo) [Example 109, 4-((trans-2-(4-chlorophenyl)-5-oxocyclohexyl)methoxy)-2,5-difluoro-N-(1,2,4-thiadiazol-5-yl)benzenesulfonamide]	> 10
0.132			COc1ccc([C@@H]2CCNC[C@H]2COc2cc(F)c(S(=O)(=O)Nc3ncns3)cc2F)cc1 (relative stereo) [Example 94, 2,5-difluoro-4-((trans-4-(4-methoxyphenyl)piperidin-3-yl)methoxy)-N-(1,2,4-thiadiazol-5-yl)benzenesulfonamide]	> 10
2.04			O=S(=O)(Nc1ncns1)c1cc(F)c(OC[C@@H]2C[C@@H](O)CCC2c2ccc(Cl)cc2)cc1F (stereo partly drawn) [Example 111, 4-(((trans-5R)-2-(4-chlorophenyl)-5-hydroxycyclohexyl)methoxy)-2,5-difluoro-N-(1,2,4-thiadiazol-5-yl)benzenesulfonamide]	> 10
0.071			O=S(=O)(Nc1ncns1)c1cc(F)c(OC[C@@H]2CNCC[C@H]2c2ccc(F)c(C(F)F)c2)cc1F (relative stereo) [Example 108, 4-((trans-4-(3-(difluoromethyl)-4-fluorophenyl)piperidin-3-yl)methoxy)-2,5-difluoro-N-(1,2,4-thiadiazol-5-yl)benzenesulfonamide]	> 10
	< 0.1	0.0008	O=S(=O)(Nc1ncns1)c1cc(F)c(OC[C@@H]2CNCC[C@H]2c2ccc(Cl)c(Cl)c2)cc1F (relative stereo) [Example 92, 4-((trans-4-(3,4-dichlorophenyl)piperidin-3-yl)methoxy)-2,5-difluoro-N-(1,2,4-thiadiazol-5-yl)benzenesulfonamide]	> 10
7.22			O=S(=O)(c1cc(F)c(OC[C@@H]2CNCC[C@H]2c2ccc(F)cc2)cc1F)n1cccn1 (relative stereo) [Example 98, trans-3-((4-((1H-pyrazol-1-yl)sulfonyl)-2,5-difluorophenoxy)methyl)-4-(4-fluorophenyl)piperidine]	7.53
0.181			O=S(=O)(Nc1ncns1)c1cc(F)c(OC[C@@H]2CNCC[C@H]2c2cc(F)c(F)cc2F)cc1F (relative stereo) [Example 106, 2,5-difluoro-N-(1,2,4-thiadiazol-5-yl)-4-((trans-4-(2,4,5-trifluorophenyl)piperidin-3-yl)methoxy)benzenesulfonamide]	> 10
0.426			O=S(=O)(Nc1ncns1)c1cc(F)c(OC[C@@H]2C[C@H](O)CCC2c2ccc(Cl)cc2)cc1F (stereo partly drawn) [Example 110, 4-(((trans-5S)-2-(4-chlorophenyl)-5-hydroxycyclohexyl)methoxy)-2,5-difluoro-N-(1,2,4-thiadiazol-5-yl)benzenesulfonamide]	> 10
0.038			O=S(=O)(Nc1ncns1)c1cc(F)c(OC[C@@H]2CNCC[C@H]2c2ccc(F)c(C(F)(F)F)c2)cc1F (relative stereo) [Example 107, 2,5-difluoro-4-((trans-4-(4-fluoro-3-(trifluoromethyl)phenyl)piperidin-3-yl)methoxy)-N-(1,2,4-thiadiazol-5-yl)benzenesulfonamide]	> 10
4.9			CC(C)CNS(=O)(=O)c1cc(F)c(OC[C@@H]2CNCC[C@H]2c2ccc(Cl)cc2)cc1F (relative stereo) [Example 96, 4-((trans-4-(4-chlorophenyl)piperidin-3-yl)methoxy)-2,5-difluoro-N-isobutylbenzenesulfonamide]	7.56
0.393			Cc1ccc([C@@H]2CCNC[C@H]2COc2cc(F)c(S(=O)(=O)Nc3ncns3)cc2F)cc1 (relative stereo) [Example 100, 2,5-difluoro-N-(1,2,4-thiadiazol-5-yl)-4-((trans-4-(p-tolyl)piperidin-3-yl)methoxy)benzenesulfonamide]	> 10
0.326			O=S(=O)(Nc1ncns1)c1cc(F)c(OCC2CNCCN2c2ccc(Cl)cc2)cc1F (stereo not drawn) [Example 112, 4-((1-(4-chlorophenyl)piperazin-2-yl)methoxy)-2,5-difluoro-N-(1,2,4-thiadiazol-5-yl)benzenesulfonamide]	> 10

— patent US9630929B2, “Benzenesulfonamide compounds and their use as therapeutic agents” (XENON PHARMACEUTICALS INC., priority 2011, dated 2017)
